Patent publication US10111848B2 (National Institute of Health and Medical Research, priority 2012, dated 2018)

Test system: Subjects exhibiting GLUT1 deficiency
Assay: Treatment of subjects exhibiting GLUT1 deficiency with triheptanoin (Example 1)
Assay type: in vivo
Settings: triheptanoin with each meal, about 30-35% of caloric intake, with or without other anti-epileptic drugs
Text: The subjects' seizure frequency is reduced and their neurologic and movement disorder is improved due to the restoration of brain energy metabolism and net biosynthesis.

**Q.** `CCCCCCC(=O)OCC(COC(=O)CCCCCC)OC(=O)CCCCCC` [triheptanoin, glyceryl triheptanoate] was tested. Which “neurologic and movement disorder” value did it give?
**A.** The value was “improved”.

**Q.** What about the seizure frequency of the same compound?
**A.** The seizure frequency was “reduced”.
